Biological target: p45 v-abl tyrosine kinase
Experiment: Exogenous Substrate Kinase Assay: p45 v-abl kinase inhibition, (Val5)-Angiotensin II phosphorylation
Format: biochemical, Abelson murine leukemia virus
Details: (Val^5)-Angiotensin II 2 mM, ATP 50 μM, pH 8.0, 30° C., triplicate determinations
Protocol: The enzyme used in our test was the p45 v-abl tyrosine kinase which represents the catalytic domain of the Abelson tyrosine kinase (isolated from the Abelson murine leukemia virus). The p45 v-abl kinase was produced and isolated as described by Wang et al. in J. Biol. Chem. 260, 64 (1985) and by Ferguson et al. in J. Biol. Chem. 260, 3652 (1985) and in Biochem. J. 257, 321 (1989).
(Val^5)-Angiotensin II phosphorylation was performed by incubation with 40 ng of purified abl-kinase and (γ-^32 P)-ATP, in 50 μl of buffer containing Tris-HCl 25 mM, pH 8.0, MgCl2 10 mM and dithiothreitol 0.1 mM (kinase buffer). The reaction mixture was incubated for the indicated time at 30° C. and the reaction stopped by adding 50 μl of 5% trichloroacetic acid.
After a brief incubation on ice, tubes were centrifuged. The supernatants were spotted on phosphocellulose paper squares (Whatman P-81) and washed extensively in acetic acid. The radioactivity bound to dried phosphocellulose squares was measured in a liquid scintillation counter. IC50 values were calculated from triplicate determinations of each experimental point. Each inhibitor was tested at concentrations ranging from […] in the presence of fixed concentrations of peptide (2 mM) and ATP (50 μM).

Row | SMILES | IC50 [nM]
1 | O=C1Nc2ccccc2/C1=C/c1c[nH]c2ncccc12 [3-[(7-azaindol-3-yl)methylen]-2-oxindole, (Z)-3-[(7-azaindol-3-yl)methylen]-2-oxindole] | 50
2 | N#CC(=Cc1c[nH]c2ncccc12)C(N)=O [2-cyano-3-(7-azaindol-3-yl)acrylamide] | 4700
